Where only a bound is given, the exact number is not on record here.

For orientation: EC50 means the concentration giving half of the maximal effect.

Assay [1] relates to lymphoma cells expressing luciferase. The assay is described as follows: Inhibiting Hh pathway abrogates lymphoma expansion in vivo (bioluminescence imaging). On the set-up: species or system syngeneic C57BL/6 mice. As to conditions: 50 mg/kg/day. As to the method: Stroma produced hedgehog ligands are important growth and survival factors for primary lymphoma cells under in-vitro culture conditions. Growth and expansion of lymphoma cells in-vivo is also dependent on Hh signalling. 1e6 lymphoma cells expressing luciferase were injected into syngeneic C57BL/6 mice. […] Luciferase levels were measured by bioluminescence imaging 3 times per week. […] Therefore we conclude that hedgehog pathway inhibition reduces lymphoma growth in mice.

The test system of assay [2] is basal cell carcinoma lesions (basaloid nests) in embryonic skin punches. The assay is described as follows: Embryonic skin punch assay (Shh-induced basaloid nests). Type of assay: cell-based, Ptch+/−-LacZ mice. As to conditions: Mus musculus, completely blocks the basanoid formation, read-out: EC50 to block basanoid formation. As to the method: Compounds of the invention are tested from their ability to treat non-melanoma skin cancer, i.e. basal cell carcinoma lesions using the skin punch assay. Mouse embryos from Ptch^+/−-LacZ mice, are collected and killed at late gestation (embryonic day 17.5) and their skins excised. Circular punches (4 mm in diameter are placed in a collagen-coated Transwell (BIOCOAT cell Culture Insert, Becton Dickinson Labware, Bedford, Mass.) and cultured at the air-liquid interface, with the epidermis side facing up. The culture medium contains 5% FBS in DMEM/F12 (3:1) with added epidermal growth factor, insulin, and hydrocortisone. To induce formation of basaloid nests, punches are grown in the presence of 1-2 μg/ml Shh for 4 or more days. Effects of compounds of the invention are tested by adding at the time of Shh addition or after 6 days of Shh pretreatment. Compounds of the invention show full inhibition (preventing lesion formation) at concentrations of 1 μM or less.

Take `Cc1c(C(=O)Nc2ccc(N3C[C@@H](C)O[C@@H](C)C3)nc2)cccc1-c1ccc(OC(F)(F)F)cc1` [Compound 153, N-(6-((2R,6S)-2,6-dimethylmorpholino)pyridin-3-yl)-2-methyl-4′-(trifluoromethoxy)biphenyl-3-carboxamide]: the “lymphoma cell expansion (full efficacy)” value in assay [1] was “completely blocks lymphoma cell expansion”. For the same molecule, the EC50 in assay [2] is < 200 nM.

The values above are taken from patent US8507471B2, “Biphenylcarboxamide derivatives as hedgehod pathway modulators” (IRM LLC, priority 2007, dated 2013).
